# Source: paper PMC8079033, “Design, synthesis, anticancer evaluation, and molecular modelling studies of novel tolmetin derivatives as potential VEGFR-2 inhibitors and apoptosis inducers” (Journal of Enzyme Inhibition and Medicinal Chemistry, 2021)
# Experiments:
# OVCAR-4 = test: NCI 60-cell line one-dose antiproliferative screen (SRB); format: cell-based; details: Homo sapiens, read-out: growth inhibition % (GI%)
# Description: (§1) Anticancer activity screening of the newly synthesised compounds was measured in vitro utilising 60 different human tumour cell lines provided by US National Cancer Institute according to previously reported standard procedure[41–43] as follows: Cells are inoculated into 96-well microtiter plates in 100 ml. After cell inoculation, the microtiter plates are incubated at 37 °C, 5% CO2, 95% air, and 100% relative humidity for 24 h prior to addition of experimental compounds. After 24 h, two plates of each cell line are fixed in situ with TCA, to represent a measurement of the cell population for each cell line at the time of compound addition (Tz). Experimental compounds are solubilised in dimethyl sulfoxide at 400-fold the desired final maximum test concentration and stored frozen prior to use. At the time of compound addition, an aliquot of frozen concentrate is thawed and diluted to twice the desired final maximum test concentration with a complete medium containing […] gentamicin. Aliquots of […] of the compounds dilutions are added to the appropriate microtiter wells already containing 100 ml of medium, resulting in the required final compound concentration. Following compound addition, the plates are incubated for an additional 48 h at 37 °C, 5% CO2, 95% air, and 100% relative humidity. For adherent cells, the assay is terminated by the addition of cold trichloroacetic acid (TCA). Cells are fixed in situ by the gentle addition of 50 ml of cold 50% (w/v) TCA (final concentration, 10% TCA) and incubated for […] at 4 °C. The supernatant is discarded, and the plates are washed five times with tap water and air-dried. Sulforhodamine B (SRB) solution (100 ml) at 0.4% (w/v) in 1% acetic acid is added to each well, and plates are incubated for 10 min at room temperature. After staining, the unbound dye is removed by washing five times with 1% acetic acid and the plates are air-dried. The bound stain is subsequently solubilised with a 10 mM trizma base, and the absorbance is read on an automated plate reader at a wavelength of 515 nm. For suspension cells, the methodology is the same except that the assay is terminated by fixing settled cells at the bottom of the wells by gently adding 50 ml of 80% TCA (final concentration, 16% TCA). Using the absorbance measurements [time zero, (Tz), control growth, (C), and test growth in the presence of compound (Ti)], the percentage growth is calculated for each compound. The One-dose data are reported as a mean graph of the percent growth of treated cells. The reported number is growth relative to the no-compound control, and relative to the time zero number of cells. This allows the detection of both growth inhibition and lethality.
# (§2) Fifteen newly synthesised compounds were tested for their in vitro antiproliferative activity by the National Cancer Institute (NCI), Maryland, USA[50], under the Developmental Therapeutic Program (DTP)[41]^,[43]^,[51]^,[52]. The tested compounds were evaluated at a concentration of 10 µM on a panel of 60 tumour cell lines representing leukaemia and non-small cell lung, colon, CNS, melanoma, ovarian, renal, prostate, and breast cancers. The antiproliferative activity was presented by the NCI as percent growth of the treated cells and is presented in Table 1 as growth inhibition percentage (GI%) achieved by the tested compounds.
# HOP-92 = test: as above; format: cell-based; details: Homo sapiens, read-out: growth inhibition % (GI%)
# Description: as §1, §2
# U251 = test: as above; format: cell-based; details: Homo sapiens, U-251, read-out: growth inhibition % (GI%)
# Description: as §1, §2
# NCI-H226 = test: as above; format: cell-based; details: Homo sapiens, read-out: growth inhibition % (GI%)
# Description: as §1, §2
# CAKI-1 = test: as above; format: cell-based; details: Homo sapiens, read-out: growth inhibition % (GI%)
# Description: as §1, §2
# MDA-MB-231/ATCC = test: as above; format: cell-based; details: Homo sapiens, read-out: growth inhibition % (GI%)
# Description: as §1, §2
# NCI-H522 = test: as above; format: cell-based; details: Homo sapiens, read-out: growth inhibition % (GI%)
# Description: as §1, §2
# PC-3 = test: as above; format: cell-based; details: Homo sapiens, read-out: growth inhibition % (GI%)
# Description: as §1, §2
# A549/ATCC = test: as above; format: cell-based; details: Homo sapiens, read-out: growth inhibition % (GI%)
# Description: as §1, §2
# HOP-62 = test: as above; format: cell-based; details: Homo sapiens, read-out: growth inhibition % (GI%)
# Description: as §1, §2
# OVCAR-5 = test: as above; format: cell-based; details: Homo sapiens, read-out: growth inhibition % (GI%)
# Description: as §1, §2
# RPMI-8226 = test: as above; format: cell-based; details: Homo sapiens, read-out: growth inhibition % (GI%)
# Description: as §1, §2
# SNB-75 = test: as above; format: cell-based; details: Homo sapiens, read-out: growth inhibition % (GI%)
# Description: as §1, §2
# MOLT-4 = test: as above; format: cell-based; details: Homo sapiens, read-out: growth inhibition % (GI%)
# Description: as §1, §2
# HCC-2998 = test: as above; format: cell-based; details: Homo sapiens, read-out: growth inhibition % (GI%)
# Description: as §1, §2
# BT-5 = test: as above; format: cell-based; details: Homo sapiens, read-out: growth inhibition % (GI%)
# Description: as §1, §2
# SN 12 C = test: as above; format: cell-based; details: Homo sapiens, SN12C, read-out: growth inhibition % (GI%)
# Description: as §1, §2
# HCT-15 = test: as above; format: cell-based; details: Homo sapiens, read-out: growth inhibition % (GI%)
# Description: as §1, §2
# EKVX = test: as above; format: cell-based; details: Homo sapiens, read-out: growth inhibition % (GI%)
# Description: as §1, §2
# HS 578 T = test: as above; format: cell-based; details: Homo sapiens, read-out: growth inhibition % (GI%)
# Description: as §1, §2
# A498 = test: as above; format: cell-based; details: Homo sapiens, read-out: growth inhibition % (GI%)
# Description: as §1, §2
# SW-620 = test: as above; format: cell-based; details: Homo sapiens, read-out: growth inhibition % (GI%)
# Description: as §1, §2
# UACC-257 = test: as above; format: cell-based; details: Homo sapiens, read-out: growth inhibition % (GI%)
# Description: as §1, §2
# IGROV1 = test: as above; format: cell-based; details: Homo sapiens, IGROV-1, read-out: growth inhibition % (GI%)
# Description: as §1, §2
# HCT-116 = test: as above; format: cell-based; details: Homo sapiens, read-out: growth inhibition % (GI%)
# Description: as §1, §2
# SK-MEL-5 = test: as above; format: cell-based; details: Homo sapiens, read-out: growth inhibition % (GI%)
# Description: as §1, §2
# SNB-19 = test: as above; format: cell-based; details: Homo sapiens, read-out: growth inhibition % (GI%)
# Description: as §1, §2
# K-562 = test: as above; format: cell-based; details: Homo sapiens, K562, read-out: growth inhibition % (GI%)
# Description: as §1, §2
# OVCAR-8 = test: as above; format: cell-based; details: Homo sapiens, read-out: growth inhibition % (GI%)
# Description: as §1, §2
# UO-31 = test: as above; format: cell-based; details: Homo sapiens, read-out: growth inhibition % (GI%)
# Description: as §1, §2
# NCI-H23 = test: as above; format: cell-based; details: Homo sapiens, read-out: growth inhibition % (GI%)
# Description: as §1, §2
# SF-268 = test: as above; format: cell-based; details: Homo sapiens, read-out: growth inhibition % (GI%)
# Description: as §1, §2
# SF-539 = test: as above; format: cell-based; details: Homo sapiens, read-out: growth inhibition % (GI%)
# Description: as §1, §2
# ACHN = test: as above; format: cell-based; details: Homo sapiens, read-out: growth inhibition % (GI%)
# Description: as §1, §2
# T-47D = test: as above; format: cell-based; details: Homo sapiens, T47D, read-out: growth inhibition % (GI%)
# Description: as §1, §2
# UACC-62 = test: as above; format: cell-based; details: Homo sapiens, read-out: growth inhibition % (GI%)
# Description: as §1, §2
# MCF7 = test: as above; format: cell-based; details: Homo sapiens, read-out: growth inhibition % (GI%)
# Description: as §1, §2
# LOX IMVI = test: as above; format: cell-based; details: Homo sapiens, read-out: growth inhibition % (GI%)
# Description: as §1, §2
smiles,measurement,setting,value
"Cc1ccc(C(=O)c2ccc(CC(=O)NNC(=O)Nc3c(Cl)cccc3Cl)n2C)cc1 [Compound 8a, N-(2,6-Dichlorophenyl)-2–(2-(1-methyl-5–(4-methylbenzoyl)-1H-pyrrol-2-yl)acetyl) hydrazinecarboxamide]",inhibition at 10 µM,OVCAR-4,16%
same,inhibition at 10 µM,HOP-92,< 10%
same,inhibition at 10 µM,U251,11.7%
same,inhibition at 10 µM,NCI-H226,< 10%
same,inhibition at 10 µM,CAKI-1,14.9%
same,inhibition at 10 µM,MDA-MB-231/ATCC,< 10%
same,inhibition at 10 µM,NCI-H522,15.9%
same,inhibition at 10 µM,PC-3,10.5%
same,inhibition at 10 µM,A549/ATCC,< 10%
same,inhibition at 10 µM,HOP-62,11.4%
same,inhibition at 10 µM,OVCAR-5,< 10%
same,inhibition at 10 µM,RPMI-8226,< 10%
same,inhibition at 10 µM,SNB-75,28.1%
same,inhibition at 10 µM,MOLT-4,< 10%
same,inhibition at 10 µM,HCC-2998,< 10%
same,inhibition at 10 µM,BT-5,< 10%
same,inhibition at 10 µM,SN 12 C,< 10%
same,inhibition at 10 µM,HCT-15,< 10%
same,inhibition at 10 µM,EKVX,< 10%
same,inhibition at 10 µM,HS 578 T,< 10%
same,inhibition at 10 µM,A498,< 10%
same,inhibition at 10 µM,SW-620,< 10%
same,inhibition at 10 µM,UACC-257,< 10%
same,inhibition at 10 µM,IGROV1,14%
same,inhibition at 10 µM,HCT-116,< 10%
same,inhibition at 10 µM,SK-MEL-5,< 10%
same,inhibition at 10 µM,SNB-19,17.7%
same,inhibition at 10 µM,K-562,< 10%
same,inhibition at 10 µM,OVCAR-8,< 10%
same,inhibition at 10 µM,UO-31,31.1%
same,inhibition at 10 µM,NCI-H23,< 10%
same,inhibition at 10 µM,SF-268,< 10%
same,inhibition at 10 µM,SF-539,< 10%
same,inhibition at 10 µM,ACHN,< 10%
same,inhibition at 10 µM,T-47D,18%
same,inhibition at 10 µM,UACC-62,11.1%
same,inhibition at 10 µM,MCF7,10%
same,inhibition at 10 µM,LOX IMVI,< 10%
same,melting point,,245 to 247 °C
